Tests used:
[1] = molecular target: T1, Polyunsaturated fatty acid 5-lipoxygenase (Homo sapiens) (UniProt P09917); test: Inhibition of Calcium Ionophore (A-23187)-stimulated LTB4 formation in Human Neutrophil assay at 100 uM.; assay type: functional
T1 sequence (whole entry): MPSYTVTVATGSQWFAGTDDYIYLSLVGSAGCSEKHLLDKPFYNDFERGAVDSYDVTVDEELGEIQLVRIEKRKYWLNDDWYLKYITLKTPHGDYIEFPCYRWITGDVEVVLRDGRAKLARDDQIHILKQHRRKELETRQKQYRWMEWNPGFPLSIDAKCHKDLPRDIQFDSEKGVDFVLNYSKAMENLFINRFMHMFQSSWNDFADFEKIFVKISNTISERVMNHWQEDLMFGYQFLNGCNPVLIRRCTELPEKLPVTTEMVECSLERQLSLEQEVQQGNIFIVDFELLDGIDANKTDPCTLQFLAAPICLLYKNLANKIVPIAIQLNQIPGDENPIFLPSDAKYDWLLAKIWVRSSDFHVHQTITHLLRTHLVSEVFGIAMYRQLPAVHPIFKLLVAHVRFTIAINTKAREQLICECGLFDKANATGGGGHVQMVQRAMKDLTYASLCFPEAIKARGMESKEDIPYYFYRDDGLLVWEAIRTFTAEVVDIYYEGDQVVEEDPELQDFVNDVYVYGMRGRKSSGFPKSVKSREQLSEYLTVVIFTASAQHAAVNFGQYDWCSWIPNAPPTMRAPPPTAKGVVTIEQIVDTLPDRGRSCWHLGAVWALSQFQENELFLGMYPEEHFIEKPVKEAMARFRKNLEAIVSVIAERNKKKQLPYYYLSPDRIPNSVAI

[2] = system: Rattus norvegicus; test: Percent inhibition was determined for in vivo ionophore induced rat pleurisy at a dose of 3 mg/kg; assay type: functional
[3] = species: Homo sapiens; test: Inhibition of Calcium Ionophore (A-23187)-stimulated LTB4 formation in Human whole blood assay at a concentration of 12.5 nM; assay type: functional
[4] = half life was determined in plasma of dog; assay type: ADME, organism-based, Canis lupus familiaris
[5] = half life was determined in plasma of rat; assay type: ADME, organism-based
[6] = system: Rattus norvegicus; test: Effective dose was determined in in vivo which inhibits 50% of the mean value in rat anaphylaxis.; assay type: functional
[7] = half life was determined in plasma of monkey; assay type: ADME; conditions: simiiformes
[8] = species: Homo sapiens; test: Inhibition of Calcium Ionophore (A-23187)-stimulated LTB4 formation in Human whole blood assay.; assay type: functional
[9] = system: Rattus norvegicus; test: In vivo inhibition of ionophore induced rat pleurisy.; assay type: functional
[10] = system: Rattus norvegicus; test: Effective dose was determined for in vivo ionophore induced rat pleurisy.; assay type: functional
[11] = system: Rattus norvegicus; test: Percent inhibition was determined for in vivo ionophore induced rat pleurisy at a dose of 0.3 mg/kg
[12] = system: Rattus norvegicus; test: Percent inhibition was determined for in vivo ionophore induced rat pleurisy at a dose of 10 mg/kg
[13] = molecular target: T1, Polyunsaturated fatty acid 5-lipoxygenase (Homo sapiens); test: Inhibition of Calcium Ionophore (A-23187)-stimulated LTB4 formation in Human Neutrophil assay at 100 nM.

## O=C(O)c1ccc(O)c(/C=N/OC(c2ccc(OCc3ccc4ccccc4n3)cc2)C2CCCCC2)c1 (stereo not drawn)
[1]
  inhibition: 95%
[2]
  I: 35%

## O=C(O)/C=N/OC(c1ccc(-c2ccc(OCc3ccc4ccccc4n3)cc2)cc1)C1CCCCC1 (stereo not drawn)
[1]
  inhibition: 55%
[2]
  I: 10%

## C/C(=N/OC(c1ccc(OCc2ccc3ccccc3n2)cc1)C1CCCCC1)C(=O)O (stereo not drawn)
[3]
  Inhibition: 59%

## C/C(=N\O[C@H](c1ccc(OCc2ccc3ccccc3n2)cc1)C1CCCCC1)C(=O)[O-].[Na+]
[4]
  half-life: 5.6 h
[5]
  half-life: 10.3 h
[6]
  ED50: 0.13 mg/kg
[7]
  half-life: 1.6 h
[8]; Homo sapiens, Blood
  IC50: 720 nM
[9]
  ED50: 0.14 mg/kg

## C/C(=N\OC(c1ccc(OCc2cc(-c3ccccc3)on2)cc1)C1CCCCC1)C(=O)O (stereo not drawn)
[1]
  inhibition: 61%
[2]
  I: 0%

## C/C(=N\OC(c1ccc(OCc2nc(-c3ccc(C(C)C)cc3)cs2)cc1)C1CCCCC1)C(=O)O (stereo not drawn)
[1]
  inhibition: 57%
[2]
  I: 17%

## CC(C)(CC(O/N=C/C(=O)O)c1ccc(OCc2ccc3ccccc3n2)cc1)c1ccccc1 (stereo not drawn)
[10]
  ED50: 4 mg/kg

## CC(=NOC(c1ccc(OCc2ccc3ccccc3n2)cc1)C1CCCCC1)C(=O)O (stereo not drawn)
[4]
  half-life: 2 h
[5]
  half-life: 1 h
[6]
  ED50: 1.2 mg/kg
[7]
  half-life: 5.4 h
[8]; Homo sapiens, Blood
  IC50: 2100 nM
[2]
  I: 89%

## C/C(=N\OC(c1ccc(OCc2ccc3ccccc3n2)cc1)c1cccnc1)C(=O)O (stereo not drawn)
[1]
  inhibition: 20%

## CCCCCCCCCCCCC(O/N=C/C(=O)O)c1ccc(OCc2ccc3ccccc3n2)cc1 (stereo not drawn)
[1]
  inhibition: 54%

## COc1cc(OCc2ccc3ccccc3n2)ccc1C(O/N=C(\C)C(=O)O)C1CCCCC1 (stereo not drawn)
[1]
  inhibition: 98%
[2]
  I: 32%

## O=C(O)/C=N/OC(c1nc(OCc2ccc3ccccc3n2)c(-c2ccccc2)s1)C1CCCCC1 (stereo not drawn)
[1]
  inhibition: 2%

## C/C(=N\OC(c1ccc(OCc2cccc(Cl)n2)cc1)C1CCCCC1)C(=O)O (stereo not drawn)
[1]
  inhibition: 7%

## C/C(=N/OC(CCc1ccc(OCc2ccc3ccccc3n2)cc1)C1CCCCC1)C(=O)O (stereo not drawn)
[1]
  inhibition: 51%
[2]
  I: 6%

## C/C(=N\O[C@@H](c1ccc(OCc2ccc3ccccc3n2)cc1)C1CCCCC1)C(=O)O
[4]
  half-life: 4.5 h
[7]
  half-life: 3.8 h
[8]; Homo sapiens, Blood
  Inhibition: 63%
[2]
  I: 29%

## C/C(=N\OC(c1ccc(OCc2ccc3ccccc3n2)cc1)C1CCCCC1)C(=O)O (stereo not drawn) [listing 1 of 2 here]
[1]
  inhibition: 95%

## C/C(=N\OC(c1ccc(OCc2ccc3ccccc3n2)cc1)C1CCCCC1)C(=O)[O-].[Na+] (stereo not drawn)
[8]
  Inhibition: 72%
[11]
  I: 74%

## CCCCCCCC(O/N=C/C(=O)O)c1ccc(OCc2ccc3ccccc3n2)cc1 (stereo not drawn)
[1]
  inhibition: 100%
[2]
  I: 0%

## C/C(=N\OC(c1ccc(OCc2ccc3ccccc3n2)cc1)C1CCCCC1)C(=O)O (stereo not drawn) [listing 2 of 2 here]
[4]
  half-life: 5.6 h
[6]
  ED50: 1.2 mg/kg
[7]
  half-life: 1.5 h
[8]
  IC50: 1800 nM
[9]
  ED50: 0.5 mg/kg

## O=C(O)/C=C/c1ccc(/C=N/OC(c2ccc(OCc3ccc4ccccc4n3)cc2)C2CCCCC2)cc1 (stereo not drawn)
[1]
  inhibition: 48%
[2]
  I: 0%

## COc1ccc(C(O/N=C(\C)C(=O)O)c2ccc(OCc3ccc4ccccc4n3)cc2)cc1 (stereo not drawn)
[1]
  inhibition: 58%
[2]
  I: 20%

## O=C(O)/C=N/OC(c1ccc(OCc2ccc3ccccc3n2)c(F)c1)C1CCCCC1 (stereo not drawn)
[1]
  inhibition: 97%

## C/C(=N\O[C@H](c1ccc(OCc2ccc3ccccc3n2)cc1)C1CCCCC1)C(=O)O
[4]
  half-life: 4.6 h
[5]
  half-life: 11.8 h
[7]
  half-life: 4 h
[8]
  IC50: 840 nM
[11]
  I: 43%

## CCCCC(O/N=C(\C)C(=O)O)c1ccc(OCc2ccc3ccccc3n2)cc1 (stereo not drawn)
[1]
  inhibition: 45%

## CC(C)(C)SC/C(=N\OC(c1ccc(OCc2ccc3ccccc3n2)cc1)C1CCCCC1)C(=O)O (stereo not drawn)
[10]
  I: 47%

## O=C(O)/C=N/OCC(c1ccc(OCc2ccc3ccccc3n2)cc1)C1CCCCC1 (stereo not drawn)
[12]
  I: 73%

## C/C(=N\OC(c1ccc(OCc2ccc3ccccc3n2)cc1Cl)C1CCCCC1)C(=O)O (stereo not drawn)
[10]
  ED50: 0.8 mg/kg

## CCCCCCCCC(O/N=C(\C)C(=O)O)c1ccc(OCc2ccc3ccccc3n2)cc1 (stereo not drawn)
[1]
  inhibition: 92%
[2]
  I: 27%

## C/C(CC(=O)O)=N\OC(c1ccc(OCc2ccc3ccccc3n2)cc1)C1CCCCC1 (stereo not drawn)
[13]
  inhibition: 40%
[2]
  I: 68%

## CCCCCCCC(O/N=C(\C)C(=O)O)c1ccc(OCc2ccc3ccccc3n2)cc1 (stereo not drawn)
[1]
  inhibition: 96%

Source: ChEMBL document CHEMBL1133707, “Heteroarylmethoxyphenylalkoxyiminoalkylcarboxylic acids as leukotriene biosynthesis inhibitors” (J Med Chem, 2000)
